These are literature values, as cited in article PMC10138554, “Insights into the Microbicidal, Antibiofilm, Antioxidant and Toxicity Profile of New O-Aryl-Carbamoyl-Oxymino-Fluorene Derivatives” (International Journal of Molecular Sciences, 2023).

Values after ≈ are worked out from the molar mass of the structure shown.

The data set concerns Artemia franciscana Kellog nauplii. The following applies: comparison value for brine shrimp toxicity; cited from earlier work.

With `O=P1(N(CCCl)CCCl)NCCCO1` (stereo not shown) [cyclophosphamide], the “IC50 (toxicity)” value is 16.3 µg/mL (≈ 62.4 µM).
